# Measurements published in publication PMC9973354 (mBio, 2022).
# Key:
# [1] = system: PA14 ΔfpvB mutant; test: MIC assay, ΔfpvB mutant; assay type: cell-based, Pseudomonas aeruginosa; settings: 10:90, growth reduced at 17 μg/mL
# Method: (§1) MIC assays were conducted as previously described ([13], [14]). Overnight cultures were grown in LB from a glycerol stock at 37°C with shaking (200 rpm). Subcultures in 10:90 (1:100 dilution) were cultured for 4 h. Cells were adjusted to an optical density at 600 nm (OD600) of 0.1/500 in 10:90. All compounds were serially diluted 2-fold in dimethyl sulfoxide (DMSO) or H2O at 75× the final concentration. Plates were sealed to prevent evaporation and incubated at 37°C overnight in a shaking incubator (200 rpm). The next day, the OD600 was determined with a plate reader (Thermo Scientific) and normalized to percent of growth of the vehicle control after subtracting the OD600 from blank media.
# [2] = system: PA14 ΔfpvA ΔfpvB ΔfiuA ΔfoxA pHERD20T-fpvB Y412A; test: Growth of quadruple mutant expressing FpvB Y412A; assay type: cell-based, Pseudomonas aeruginosa; settings: 10:90 + 2% arabinose
# Method: (§2) Site-directed mutagenesis was used to confirm the docking predictions and to define the molecular determinants for ligand uptake through FpvB (Fig. 4C). We generated 17 single amino acid substitutions in FpvB and expressed each of them in trans in the quadruple ΔfpvA ΔfpvB ΔfiuA ΔfoxA mutant. Their ability to complement growth of the mutant in the presence of ferrichrome and ferrioxamine B and to restore TS susceptibility was assessed. […] The mutant transporters were tagged with a C-terminal FLAG tag to evaluate expression levels. FLAG-tagged FpvB mutants had WT levels of expression except for Y216T and W347V, which were expressed at 140% and 25% of WT, respectively.
# (§3) The ΔfpvA ΔfpvB ΔfiuA ΔfoxA mutant was complemented with WT fpvA, fpvB, fiuA, and foxA in trans as controls (Fig. 4E).
# as §1, with “Plates were sealed to prevent evaporation and incubated at 37°C overnight in a shaking incubator (200 rpm).” left out
# [3] = system: PA14 ΔfpvA ΔfpvB pHERD20T-fpvB R648C; test: MIC assay, ΔfpvA ΔfpvB expressing FpvB R648C; assay type: cell-based, Pseudomonas aeruginosa; settings: 10:90 + 2% arabinose
# Text: (§4) FpvA T660C was used previously to measure pyoverdine-Fe^3+ binding affinity ([32]). However, this technique has not been applied to FpvB. A high-confidence structural model of FpvB was generated using AlphaFold2 ([33], [34]) and aligned with the structure of FpvA (PDB accession number 2O5P) to identify a residue suitable for labeling, with the assumption that FpvA and FpvB undergo similar conformational changes upon ferrisiderophore binding (see Fig. S3A through C in the supplemental material). Based on this analysis, FpvB R648 was mutated to Cys. FpvA T660C and FpvB R648C were each expressed in trans in the ΔfpvA ΔfpvB mutant. […] We could also detect expression by fluorescence microscopy with peripheral labeling consistent with expression in the outer membrane (Fig. 3B). Labeling was undetectable in empty vector and WT controls (see Fig. S4A in the supplemental material).
# (§5) Supplementary file : FIG S3 Overlay of FpvA and FpvB showing residues mutated to cysteine for labeling with maleimide dyes. FpvA (PDB accession number 2O5P) was superimposed with the AlphaFold2 model of FpvB. FpvA is shown in beige and FpvB in blue. […]
# (§6) MIC assays were conducted as previously described ([13], [14]). […] The next day, the OD600 was determined with a plate reader (Thermo Scientific) and normalized to percent of growth of the vehicle control after subtracting the OD600 from blank media.
# [4] = system: PA14 ΔfpvA ΔfpvB ΔfiuA ΔfoxA pHERD20T; test: Growth of quadruple mutant with empty vector; assay type: cell-based, Pseudomonas aeruginosa; settings: 10:90 + 2% arabinose
# Method: as §2, §3
# as §1, with “Plates were sealed to prevent evaporation and incubated at 37°C overnight in a shaking incubator (200 rpm).” left out
# [5] = system: PA14 ΔfpvA ΔfpvB pHERD20T-fpvB; test: MIC assay, ΔfpvA ΔfpvB complemented with fpvB; assay type: cell-based, Pseudomonas aeruginosa; settings: complementation with fpvB, arabinose induction, 10:90; susceptibility greater than with fpvA
# Method: (§7) The ΔfpvA ΔfpvB mutant was complemented in trans with pHERD20T-fpvA or pHERD20T-fpvB. pHERD20T is an arabinose-inducible vector with expression driven by the PBAD promoter under the control of AraC ([30]).
# as §1
# [6] = system: PA14 ΔfpvA ΔfpvB mutant; test: MIC assay, ΔfpvA ΔfpvB mutant; assay type: cell-based, Pseudomonas aeruginosa; settings: ΔfpvA ΔfpvB mutant, 10:90
# Method: as §1
# [7] = system: PA14 ΔfpvA ΔfpvB ΔfiuA ΔfoxA quadruple mutant; test: Growth phenotypes of deletion mutants, quadruple mutant; assay type: cell-based, Pseudomonas aeruginosa; settings: 17 μg/mL TS, 10:90
# Text: PA14, ΔfpvA, ΔfpvB, and ΔfpvA ΔfpvB strains treated with TS (A) and DSX (B) in 10:90. Green indicates growth, and white indicates no growth. Growth is expressed as percent of control. The PA14 ΔfpvA ΔfpvB strain complemented with pHERD20T, fpvA, or fpvB treated with TS (C) and DSX (D) in 10:90. […] All experiments are averaged from three independent biological replicates. Blue indicates growth and white indicates no growth. (H) Summary of growth phenotypes of WT PA14 and combinations of single, double, triple, and quadruple deletion mutants in fpvA, fpvB, fiuA, and foxA. […] Green indicates growth, whereas no growth is indicated in white. […] Representative plates are shown.
# If there were no transporters for a particular siderophore, the mutant would fail to grow due to iron restriction.
# [8] = system: PA14 ΔfpvA ΔfpvB pHERD20T-fpvA T660C; test: MIC assay, ΔfpvA ΔfpvB expressing FpvA T660C; assay type: cell-based, Pseudomonas aeruginosa; settings: 10:90 + 2% arabinose
# Text: as §4, §5, §6
# [9] = system: PA14; test: MIC assay, WT PA14; assay type: cell-based, Pseudomonas aeruginosa; settings: WT PA14, iron-limited medium (10:90)
# Method: as §1
# [10] = system: PA14 ΔfpvA ΔfpvB ΔfiuA ΔfoxA pHERD20T-fpvB D219A; test: Growth of quadruple mutant expressing FpvB D219A; assay type: cell-based, Pseudomonas aeruginosa; settings: 10:90 + 2% arabinose
# Method: as §2, §3
# as §1, with “Plates were sealed to prevent evaporation and incubated at 37°C overnight in a shaking incubator (200 rpm).” left out
# [11] = system: PA14 ΔfpvA ΔfpvB ΔfiuA ΔfoxA pHERD20T-fpvB Y216T; test: Growth of quadruple mutant expressing FpvB Y216T; assay type: cell-based, Pseudomonas aeruginosa; settings: 10:90 + 2% arabinose
# Method: as §2, §3
# as §1, with “Plates were sealed to prevent evaporation and incubated at 37°C overnight in a shaking incubator (200 rpm).” left out
# [12] = system: PA14 ΔfpvA ΔfpvB pHERD20T-fpvA; test: MIC assay, ΔfpvA ΔfpvB complemented with fpvA; assay type: cell-based, Pseudomonas aeruginosa; settings: complementation with fpvA, arabinose induction, 10:90
# Method: as §7, §1
# [13] = highest concentration tested, 10μM fluorescein-5-maleimide in PBS
# Method: Supplementary file : FIG S4 (A) Microscopy images of the PA14 ΔfpvA ΔfpvB strain with pHERD20T, pHERD20T-fpvA, and pHERD20T-fpvB treated with Alexa Fluor 594. Representative images are shown. Scale, 5μm. (B) TS partly quenches fluorescence of fluorescein-5-maleimide in the absence of cells. Each compound at the highest concentration tested was added to 10μM of fluorescein-5-maleimide in PBS in triplicate. TS reduced fluorescence to about 80% of the control. (Excitation, 485nm; emission, 528nm). ***, P < 0.001 (Student’s t test). […] Results are averaged from three independent biological replicates. Download FIG S4, EPS file, 39.8 MB.
# TS was omitted from these studies because it quenched fluorescence (~20%) of the dye in the absence of cells (Fig. S4B). In the absence of protein, none of the three siderophores quenched fluorescence of the dye at the highest concentrations tested. Quenching curves were then generated and used to calculate the dissociation constant (Kd).
# [14] = Maximum soluble TS concentration; settings: in MIC assay medium
# [15] = system: PA14 ΔfpvA mutant; test: MIC assay, ΔfpvA mutant; assay type: cell-based, Pseudomonas aeruginosa; settings: ΔfpvA mutant, iron-limited medium (10:90)
# Method: as §1
smiles,measurement,setting,value
"C=C(NC(=O)C(=C)NC(=O)c1csc(C2=N[C@@H]3c4csc(n4)[C@H]4NC(=O)c5csc(n5)[C@H]([C@](C)(O)[C@@H](C)O)NC(=O)[C@H]5CSC(=N5)/C(=C/C)NC(=O)[C@H]([C@@H](C)O)NC(=O)c5csc(n5)[C@]3(CC2)NC(=O)[C@H](C)NC(=O)C(=C)NC(=O)[C@H](C)NC(=O)[C@H]([C@@H](C)CC)N[C@@H]2C=Cc3c([C@H](C)O)cc(nc3[C@H]2O)C(=O)O[C@@H]4C)n1)C(N)=O [TS, thiostrepton]",TS susceptibility (MIC assay),[1],resistant
same,TS susceptibility,[2],reduced TS susceptibility
same,TS susceptibility,[3],WT susceptibility
same,TS susceptibility,[4],resistant
same,TS susceptibility,[5],restored TS susceptibility
same,TS susceptibility (MIC assay),[6],resistant
same,TS susceptibility,[7],resistant
same,increase of susceptibility to TS compared to WT FpvA,[8],4 fold
same,TS susceptibility (MIC assay),[9],susceptible
same,TS susceptibility,[10],reduced TS susceptibility
same,TS susceptibility,[11],reduced TS susceptibility
same,TS susceptibility,[12],restored TS susceptibility
same,dye fluorescence remaining,[13],about 80 % of the control
same,quenching of dye fluorescence in the absence of cells,[13],~ 20%
same,maximum soluble concentration,[14],17 µg/mL
same,TS susceptibility (MIC assay),[15],susceptible
